Source: patent US20250186391A1, “ORAL COMPLEMENT FACTOR D INHIBITORS” (BioCryst Pharmaceuticals, Inc., priority 2019, published 2025)
pIC50: −log10 of the molar value.

Molecular target: Factor D (Homo sapiens (Human), UniProt P00746)
Assay: Factor D esterolytic assay
Assay type: biochemical
Conditions: Z-Lys-SBzl substrate, 100 mM HEPES, 500 mM NaCl, pH 7.5, 10% DMSO; tested a minimum of three times; read-out: Measured Ki (IC50) Value for Compounds: IC50
Procedure, shortened: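 Buffer was 100 mM HEPES, 500 mM NaCl, pH 7.5 with 10% DMSO. Compound and Factor D were combined, then Z-Lys-SBzl (1.29 mM) was added either at once or following room-temperature incubation. Rates came from DTNB colour at 405 nm minus 690 nm over 600 s, with percent inhibition giving IC50 over at least three tests.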

Chain of Factor D (P00746 26-253): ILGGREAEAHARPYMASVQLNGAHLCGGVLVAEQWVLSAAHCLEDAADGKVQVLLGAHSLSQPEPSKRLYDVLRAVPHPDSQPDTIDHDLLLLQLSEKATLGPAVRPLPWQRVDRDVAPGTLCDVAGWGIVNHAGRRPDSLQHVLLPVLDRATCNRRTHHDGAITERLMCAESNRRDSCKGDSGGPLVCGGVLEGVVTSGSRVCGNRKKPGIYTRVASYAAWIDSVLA

Compound | pIC50
NCc1cccc(-c2ccc3oc(C(=O)O)c(COc4ccccc4CC(=O)O)c3c2)c1 [Compound 55d, 5-(3-(aminomethyl)phenyl)-3-((2-(carboxymethyl)phenoxy)methyl)benzofuran-2-carboxylic acid] | > 6.00
COc1ccc(CC(=O)O)c(OCc2c(C)oc3ccc(-c4cccc(CN)n4)cc23)c1 [Compound 245d, 2-(2-((5-(6-(aminomethyl)pyridin-2-yl)-2-methylbenzofuran-3-yl)methoxy)-4-methoxyphenyl)acetic acid] | > 6.00
NCc1cccc(-c2cc(CN3CC[C@H](F)C3)c3occ(COc4ccccc4CC(=O)O)c3c2)c1 [Compound 180d, (S)-2-(2-((5-(3-(aminomethyl)phenyl)-7-((3-fluoropyrrolidin-1-yl)methyl)benzofuran-3-yl)methoxy)phenyl)acetic acid] | > 6.00
NCc1cccc(-c2ccc3c(c2)c(COc2ccccc2CC(=O)O)nn3-c2cccnc2)c1 [Compound 264c, 2-(2-((5-(3-(aminomethyl)phenyl)-1-(pyridin-3-yl)-1H-indazol-3-yl)methoxy)phenyl)acetic acid] | > 6.00
CC(C)(C)OC(=O)n1cc(Cc2cccc(CC(=O)O)c2O)c2cc(-c3cccc(CN)c3)ccc21 [Compound 75e, 2-(3-((5-(3-(aminomethyl)phenyl)-1-(tert-butoxycarbonyl)-1H-indol-3-yl)methyl)-2-hydroxyphenyl)acetic acid] | < 5.00
NCc1cccc(-c2ccc3occ(COc4cc(C5CC5)ccc4CC(=O)O)c3c2)c1 [Compound 111d, 2-(2-((5-(3-(aminomethyl)phenyl)benzofuran-3-yl)methoxy)-4-cyclopropylphenyl)acetic acid] | > 6.00
NCc1cccc(-c2cc(-c3cc4ccccc4[nH]3)c3occ(COc4ccccc4CC(=O)O)c3c2)c1 [Compound 137c, 2-(2-((5-(3-(aminomethyl)phenyl)-7-(1H-indol-2-yl)benzofuran-3-yl)methoxy)phenyl)acetic acid] | > 6.00
Cc1cc(-c2cccc(CN)c2)cc2c(COc3ccccc3CC(=O)O)coc12 [Compound 17e, 2-(2-((5-(3-(aminomethyl)phenyl)-7-methylbenzofuran-3-yl)methoxy)phenyl)acetic acid] | > 6.00
NCc1cccc(-c2cc(-c3cccc(CN)c3)c3oc(C(=O)O)c(COc4ccccc4CC(=O)O)c3c2)c1 [Compound 58f, 5,7-bis(3-(aminomethyl)phenyl)-3-((2-(carboxymethyl)phenoxy)methyl)benzofuran-2-carboxylic acid] | > 6.00
COc1ccc(CC(=O)O)c(OCc2c(CO)oc3ccc(-c4cccc(CN)c4)cc23)c1 [Compound 214c, 2-(2-((5-(3-(aminomethyl)phenyl)-2-(hydroxymethyl)benzofuran-3-yl)methoxy)-4-methoxyphenyl)acetic acid] | > 6.00
NCc1cccc(-c2ccc3occ(COc4ccccc4C(=O)O)c3c2)c1 [Compound 1f, 2-((5-(3-(aminomethyl)phenyl)benzofuran-3-yl)methoxy)benzoic acid] | > 6.00
NCc1cccc(-c2ccc3occ(Cc4cccc(CC(=O)O)c4O)c3c2)c1F [Compound 42c, 2-(3-((5-(3-(aminomethyl)-2-fluorophenyl)benzofuran-3-yl)methyl)-2-hydroxyphenyl)acetic acid] | > 6.00
NCc1cccc(-c2cc(OCC3CC3)c3occ(COc4ccccc4CC(=O)O)c3c2)c1 [Compound 159f, 2-(2-((5-(3-(aminomethyl)phenyl)-7-(cyclopropylmethoxy)benzofuran-3-yl)methoxy)phenyl)acetic acid] | > 6.00
NCc1cccc(-c2cc(-c3ccc(F)cc3)c3occ(COc4ccccc4CC(=O)O)c3c2)c1 [Compound 221c, 2-(2-((5-(3-(aminomethyl)phenyl)-7-(4-fluorophenyl)benzofuran-3-yl)methoxy)phenyl)acetic acid] | > 6.00
CCCc1oc2ccc(-c3cccc(CN)c3)cc2c1COc1cc(C)ccc1CC(=O)O [Compound 285c, 2-(2-((5-(3-(aminomethyl)phenyl)-2-propylbenzofuran-3-yl)methoxy)-4-methylphenyl)acetic acid] | > 6.00
CC(C)n1nc(COc2ccccc2C(=O)O)c2cc(-c3cccc(CN)c3)ccc21 [Compound 299d, 2-((5-(3-(aminomethyl)phenyl)-1-isopropyl-1H-indazol-3-yl)methoxy)benzoic acid] | > 6.00
COc1ccc(CC(=O)O)c(OCc2c(C)oc3ccc(-c4cccc([C@H](C)N)c4)cc23)c1 [Compound 240b, (S)-2-(2-((5-(3-(1-aminoethyl)phenyl)-2-methylbenzofuran-3-yl)methoxy)-4-methoxyphenyl)acetic acid] | > 6.00
NCc1cccc(-c2cc(COc3ccccc3CC(=O)O)cc3cc(COc4ccccc4CC(=O)O)oc23)c1F [Compound 13b, 2,2′-((((7-(3-(aminomethyl)-2-fluorophenyl)benzofuran-2,5-diyl)bis(methylene))bis(oxy))bis(2,1-phenylene))diacetic acid] | > 6.00

Compound | pIC50
Cn1nc(COc2ccccc2CC(=O)O)c2cc(-c3cccc(CN)c3)ccc21 [Compound 117d, 2-(2-((5-(3-(aminomethyl)phenyl)-1-methyl-1H-indazol-3-yl)methoxy)phenyl)acetic acid] | > 6.00
CC(C)n1nc(COc2ccccc2CC(=O)O)c2cc(-c3ccnc(CN)c3F)ccc21 [Compound 271c, 2-(2-((5-(2-(aminomethyl)-3-fluoropyridin-4-yl)-1-isopropyl-1H-indazol-3-yl)methoxy)phenyl)acetic acid] | > 6.00
Cc1cccc(CC(=O)O)c1OCc1coc2ccc(-c3cccc(CN)c3)cc12 [Compound 107d, 2-(2-((5-(3-(aminomethyl)phenyl)benzofuran-3-yl)methoxy)-3-methylphenyl)acetic acid] | > 6.00
NCc1cccc(-c2ccc3occ(COc4cc(N)ccc4CC(=O)O)c3c2)c1 [Compound 84b, 2-(4-amino-2-((5-(3-(aminomethyl)phenyl)benzofuran-3-yl)methoxy)phenyl)acetic acid] | > 6.00
NCc1cccc(-c2ccc3occ(COc4ccccc4CC(=O)O)c3c2)c1F [Compound 42b, 2-(2-((5-(3-(aminomethyl)-2-fluorophenyl)benzofuran-3-yl)methoxy)phenyl)acetic acid] | > 6.00
CC(C)n1nc(COc2ccccc2CC(=O)O)c2cc(-c3cc(CN)cc(C4CCN(C)CC4)c3)ccc21 [Compound 333f, 2-(2-((5-(3-(aminomethyl)-5-(1-methylpiperidin-4-yl)phenyl)-1-isopropyl-1H-indazol-3-yl)methoxy)phenyl)acetic acid] | < 5.00
NCc1cccc(-c2cccc3occ(COc4ccccc4CC(=O)O)c23)c1 [Compound 97h, 2-(2-((4-(3-(aminomethyl)phenyl)benzofuran-3-yl)methoxy)phenyl)acetic acid] | < 5.00
CC(C)n1nc(COc2cccc(CC(=O)O)c2)c2cc(-c3cccc(CN)c3)ccc21 [Compound 304c, 2-(3-((5-(3-(aminomethyl)phenyl)-1-isopropyl-1H-indazol-3-yl)methoxy)phenyl)acetic acid] | < 5.00
NCc1cccc(-c2ccc3onc(COc4ccccc4CC(=O)O)c3c2)c1 [Compound 88e, 2-(2-((5-(3-(aminomethyl)phenyl)benzo[d]isoxazol-3-yl)methoxy)phenyl)acetic acid] | > 6.00
CN1CCN(Cc2ccc(-c3cc(-c4cccc(CN)c4)cc4c(COc5ccccc5CC(=O)O)coc34)cc2)CC1 [Compound 116d, 2-(2-((5-(3-(aminomethyl)phenyl)-7-(4-((4-methylpiperazin-1-yl)methyl)phenyl)benzofuran-3-yl)methoxy)phenyl)acetic acid] | > 6.00
CC(C)n1nc(COc2ccccc2CC(=O)O)c2cc(-c3cccc(CN)c3)ccc21 [Compound 182e, 2-(2-((5-(3-(aminomethyl)phenyl)-1-isopropyl-1H-indazol-3-yl)methoxy)phenyl)acetic acid] | > 6.00
COc1ccc(CC(=O)O)c(OCc2c(C(C)=O)oc3ccc(-c4cccc(CN)c4)cc23)c1 [Compound 218c, 2-(2-((2-acetyl-5-(3-(aminomethyl)phenyl)benzofuran-3-yl)methoxy)-4-methoxyphenyl)acetic acid] | > 6.00
NCc1cccc(-c2ccc3occ(COc4c(F)cccc4CC(=O)O)c3c2)c1F [Compound 46b, 2-(2-((5-(3-(aminomethyl)-2-fluorophenyl)benzofuran-3-yl)methoxy)-3-fluorophenyl)acetic acid] | > 6.00
CC(C)n1nc(COc2ccccc2CC(=O)O)c2cc(-c3ccc(CN)cc3)ccc21 [Compound 311c, 2-(2-((5-(4-(aminomethyl)phenyl)-1-isopropyl-1H-indazol-3-yl)methoxy)phenyl)acetic acid] | < 5.00
COc1ccc(CC(=O)O)c(OCc2c(C)oc3ccc(-c4cccc([C@H](N)CO)c4)cc23)c1 [Compound 241c, (S)-2-(2-((5-(3-(1-amino-2-hydroxyethyl)phenyl)-2-methylbenzofuran-3-yl)methoxy)-4-methoxyphenyl)acetic acid] | > 6.00
CCOC(=O)Nc1cc(-c2cccc(CN)c2)cc2c(COc3ccccc3CC(=O)O)c(C(=O)O)oc12 [Compound 102c, 5-(3-(aminomethyl)phenyl)-3-((2-(carboxymethyl)phenoxy)methyl)-7-((ethoxycarbonyl)amino)benzofuran-2-carboxylic acid] | > 6.00
COc1ccc(CC(=O)O)c(OCc2coc3c(OCC4CC4)cc(-c4cccc(CN)c4)cc23)c1 [Compound 160c, 2-(2-((5-(3-(aminomethyl)phenyl)-7-(cyclopropylmethoxy)benzofuran-3-yl)methoxy)-4-methoxyphenyl)acetic acid] | > 6.00
